In PubChem BioAssay AID504575 (Southern Research Specialized Biocontainment Screening …, 2011):

Test system: MAGI cell cytotoxicity, 2% serum
Assay: MAGI cell cytotoxicity, X4 antiviral format, dose response, cytotoxicity control for HIV-1 antiviral lead project, CXCR4-tropic MAGI assay, 2% serum, set 2 (AID 504575)

Row | SMILES | TC50 [µM]
1 | Cc1c2c(=O)n(-c3nc4ccccc4s3)nc-2cc(O)n1Cc1ccccc1Cl | 32.9
2 | COc1ccc(CCn2c(O)cc3nn(-c4nc5ccccc5s4)c(=O)c-3c2C)cc1 | 13.8
3 | Cc1c2c(=O)n(-c3nc4ccccc4s3)nc-2cc(O)n1CCC(C)C | 65
4 | Cc1c2c(=O)n(-c3nc4ccccc4s3)nc-2cc(O)n1CCc1cccs1 | 74.8
5 | Cc1c2c(=O)n(-c3nc4ccccc4s3)nc-2cc(O)n1CCc1ccc(O)cc1 | 20.5
6 | COc1ccccc1Cn1c(O)cc2nn(-c3nc4ccccc4s3)c(=O)c-2c1C | 43.2
7 | COc1ccc(Cn2c(O)cc3nn(-c4nc5ccccc5s4)c(=O)c-3c2C)cc1 | 41.1
